Measured values from patent publication US20240182445A1 (ONO PHARMACEUTICAL CO., LTD., priority 2019, published 2024).

molecular target: T1, human TREK-1 (Homo sapiens, UniProt O95069); assay: TREK-1 Thallium (Tl+) flux assay, Method 1; format: cell-based; conditions: TREK-1 Thallium (Tl+) flux assay, Method 1
T1 construct: expressed in transfected cells
T1 sequence (O95069 1-426): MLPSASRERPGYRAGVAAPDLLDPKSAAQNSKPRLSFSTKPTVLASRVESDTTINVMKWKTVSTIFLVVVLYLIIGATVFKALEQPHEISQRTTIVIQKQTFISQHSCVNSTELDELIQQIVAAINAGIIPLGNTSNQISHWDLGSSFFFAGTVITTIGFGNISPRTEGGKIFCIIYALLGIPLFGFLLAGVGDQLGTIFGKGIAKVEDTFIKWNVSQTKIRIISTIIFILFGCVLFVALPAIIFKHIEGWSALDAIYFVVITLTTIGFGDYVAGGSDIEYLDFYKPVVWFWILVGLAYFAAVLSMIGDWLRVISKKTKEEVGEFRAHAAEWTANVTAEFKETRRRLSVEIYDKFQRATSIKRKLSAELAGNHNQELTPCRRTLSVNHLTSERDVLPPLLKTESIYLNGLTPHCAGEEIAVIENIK
In short: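 Readout: Thallos fluorescence ratio, taken 25 s post-thallium relative to the pre-thallium baseline average, then converted to % inhibition. Cells were CHO-K1 stably expressing human TREK-1, dye-loaded and exposed to test compound (vehicle 0.3% DMSO) for 10 min prior to thallium stimulation.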

Structure (SMILES) | IC50 [nM]
CCC(=O)N1CCOC(Cn2ncc(Cl)c2C(=O)Nc2ccc(OCc3ccccc3)cc2C)C1 (stereo not shown) [Compound 435] | 8110
COc1ncc(-c2cnc(NC(=O)c3c(Cl)cnn3C3CCN(C(=O)OC(C)(C)C)CC3)c(C)c2)cn1 [Compound 419, tert-butyl 4-(4-chloro-5-((5-(2-methoxypyrimidin-5-yl)-3-methylpyridin-2-yl)carbamoyl)-1H-pyrazol-1-yl)piperidine-1-carboxylate] | 4190
Cc1cc(OCc2ccccc2)ccc1NC(=O)c1c(Cl)cnn1C1CC2(C1)CN(C(=O)C1CC1)C2 [Compound 406, N-(4-(benzyloxy)-2-methylphenyl)-4-chloro-1-(2-(cyclopropanecarbonyl)-2-azaspiro[3.3]heptan-6-yl)-1H-pyrazole-5-carboxamide] | 2540

same assay, conditions: TREK-1 Thallium (Tl+) flux assay; no *^12 (Method 2) mark on these rows

Structure (SMILES) | IC50 [nM]
Cc1cc(C#Cc2ccccc2)cnc1NC(=O)c1c(Cl)cnn1CC1(C)CCN(C(=O)OC(C)(C)C)CC1 [Compound 301, tert-butyl 4-((4-chloro-5-((3-methyl-5-(phenylethynyl)pyridin-2-yl)carbamoyl)-1H-pyrazol-1-yl)methyl)-4-methylpiperidine-1-carboxylate] | 540
Cc1cc(C#Cc2ccccc2)cnc1NC(=O)c1c(Cl)cnn1CC1CCCOC1 (stereo not shown) [Compound 280, 4-chloro-N-(3-methyl-5-(phenylethynyl)pyridin-2-yl)-1-((tetrahydro-2H-pyran-3-yl)methyl)-1H-pyrazole-5-carboxamide] | 490
Cc1cc(C#Cc2ccccc2)cnc1NC(=O)c1c(Cl)cnn1C1CCN(C(=O)OC(C)(C)C)C[C@H]1F (stereo in doubt) [Compound 336, tert-butyl (3R,4R)-4-(4-chloro-5-((3-methyl-5-(phenylethynyl)pyridin-2-yl)carbamoyl)-1H-pyrazol-1-yl)-3-fluoropiperidine-1-carboxylate] | 710
CC(C)(C)OC(=O)N[C@H]1C[C@@H](n2ncc(Cl)c2C(=O)Nc2ncc(C#Cc3ccccc3)cc2F)C1 [Compound 325, tert-butyl (cis-3-(4-chloro-5-((3-fluoro-5-(phenylethynyl)pyridin-2-yl)carbamoyl)-1H-pyrazol-1-yl)cyclobutyl)carbamate] | 640
Cc1cc(C#Cc2ccccc2)cnc1NC(=O)c1c(Cl)cnn1CC(C)(C)C#N [Compound 276, 4-chloro-1-(2-cyano-2-methylpropyl)-N-(3-methyl-5-(phenylethynyl)pyridin-2-yl)-1H-pyrazole-5-carboxamide] | 480
Cc1cc(C#Cc2ccccc2)cnc1NC(=O)c1c(Cl)cnn1CC1(C)CCN(C(=O)C2COCCO2)CC1 (stereo not shown) [Compound 251, 1-((1-(1,4-dioxane-2-carbonyl)-4-methylpiperidin-4-yl)methyl)-4-chloro-N-(3-methyl-5-(phenylethynyl)pyridin-2-yl)-1H-pyrazole-5-carboxamide] | 400
Cc1cc(C#Cc2ccccc2)cnc1NC(=O)c1c(Cl)cnn1CC1(C#N)CC1 [Compound 267, 4-chloro-1-((1-cyanocyclopropyl)methyl)-N-(3-methyl-5-(phenylethynyl)pyridin-2-yl)-1H-pyrazole-5-carboxamide] | 450

same assay, conditions: TREK-1 Thallium (Tl+) flux assay; values without footnote *12 are Method 1

Structure (SMILES) | IC50 [nM]
CC(C)C(=O)N[C@H]1CC[C@@H](n2ncc(Cl)c2C(=O)Nc2ncc(C#Cc3ccc(F)cc3)cc2F)CC1 [Compound 45, 4-chloro-N-(3-fluoro-5-((4-fluorophenyl)ethynyl)pyridin-2-yl)-1-(cis-4-isobutyramidocyclohexyl)-1H-pyrazole-5-carboxamide] | 130
CC(=O)N1CCC(C(C)n2ncc(Cl)c2C(=O)Nc2ncc(C#Cc3ccccc3)cc2F)CC1 (stereo not shown) [Compound 35, 1-(1-(1-acetylpiperidin-4-yl)ethyl)-4-chloro-N-(3-fluoro-5-(phenylethynyl)pyridin-2-yl)-1H-pyrazole-5-carboxamide] | 110
Cc1cc(C#Cc2cccs2)cnc1NC(=O)c1c(Cl)cnn1C1CC2(C1)CN(C(=O)C(C)C)C2 [Compound 46, 4-chloro-1-(2-isobutyryl-2-azaspiro[3.3]heptan-6-yl)-N-(3-methyl-5-(thiophen-2-ylethynyl)pyridin-2-yl)-1H-pyrazole-5-carboxamide] | 130
CC(C)(C)OC(=O)N1C[C@H]2C[C@H](n3ncc(Cl)c3C(=O)Nc3ncc(C#Cc4ccccc4)cc3F)C[C@H]2C1 [Compound 170, tert-butyl (3aR,5s,6aS)-5-(4-chloro-5-{[3-fluoro-5-(phenylethynyl)pyridin-2-yl]carbamoyl}-1H-pyrazol-1-yl)hexahydrocyclopenta[c]pyrrole-2(1H)-carboxylate] | 270
CC(C)C(=O)N1CCC(CCn2ncc(Cl)c2C(=O)Nc2ncc(C#Cc3ccccc3)cc2F)CC1 [Compound 144, 4-chloro-N-(3-fluoro-5-(phenylethynyl)pyridin-2-yl)-1-(2-(1-isobutyrylpiperidin-4-yl)ethyl)-1H-pyrazole-5-carboxamide] | 230
CCC(=O)N1CCC(n2ncc(Cl)c2C(=O)Nc2ncc(C#Cc3cccs3)cc2F)CC1 [Compound 67, 4-chloro-N-(3-fluoro-5-(thiophen-2-ylethynyl)pyridin-2-yl)-1-(1-propionylpiperidin-4-yl)-1H-pyrazole-5-carboxamide] | 150
CC(=O)N1CCC(C#N)(Cn2ncc(Cl)c2C(=O)Nc2ncc(C#Cc3ccccc3)cc2C)CC1 [Compound 84, 1-((1-acetyl-4-cyanopiperidin-4-yl)methyl)-4-chloro-N-(3-methyl-5-(phenylethynyl)pyridin-2-yl)-1H-pyrazole-5-carboxamide] | 160
CC1CC1C(=O)N1CCC(n2ncc(Cl)c2C(=O)Nc2ncc(C#Cc3ccccc3)cc2F)CC1 (stereo not shown) [Compound 91, 4-chloro-N-(3-fluoro-5-(phenylethynyl)pyridin-2-yl)-1-(1-(2-methylcyclopropane-1-carbonyl)piperidin-4-yl)-1H-pyrazole-5-carboxamide] | 180
Cc1cc(C#Cc2ccccc2)cnc1NC(=O)c1c(Cl)cnn1C1CCN(C(=O)C2CC2)C1 (stereo not shown) [Compound 79, 4-chloro-1-(1-(cyclopropanecarbonyl)pyrrolidin-3-yl)-N-(3-methyl-5-(phenylethynyl)pyridin-2-yl)-1H-pyrazole-5-carboxamide] | 160
Cc1cc(C#Cc2ccc(F)cc2)cnc1NC(=O)c1c(Cl)cnn1C1CC2(C1)CN(C(=O)C1COCCO1)C2 (stereo not shown) [Compound 138, 1-(2-(1,4-dioxane-2-carbonyl)-2-azaspiro[3.3]heptan-6-yl)-4-chloro-N-(5-((4-fluorophenyl)ethynyl)-3-methylpyridin-2-yl)-1H-pyrazole-5-carboxamide] | 220
CC(C)C(=O)N1CC[C@@H](Cn2ncc(Cl)c2C(=O)Nc2ncc(C#Cc3ccccc3)cc2F)[C@@H](F)C1 [Compound 146, 4-chloro-1-(((3R,4S)-3-fluoro-1-isobutyrylpiperidin-4-yl)methyl)-N-(3-fluoro-5-(phenylethynyl)pyridin-2-yl)-1H-pyrazole-5-carboxamide] | 230
Cc1cc(C#Cc2ccc(F)cc2)cnc1NC(=O)c1c(Cl)cnn1[C@H]1CC[C@@H](NC(=O)C2COCCO2)CC1 (stereo partly drawn) [Compound 38, 1-(cis-4-(1,4-dioxane-2-carboxamido)cyclohexyl)-4-chloro-N-(5-((4-fluorophenyl)ethynyl)-3-methylpyridin-2-yl)-1H-pyrazole-5-carboxamide] | 120
